Reference: ChEMBL document CHEMBL1155678, “Artoindonesianin C, a new xanthone derivative from Artocarpus teysmanii” (J Nat Prod, 2000)

Legend:
Bombyx mori = assay: Inhibition of leucine uptake in Bombyx mori larval midgut brush border membrane vesicles at 0.2 uM; type: functional
[1] = Toxicity against Artemia salina; type: organism-based; details: in vivo

With `C=C(C)c1cc2c(=O)c3c(O)cc4c(c3oc2c2c1C(O)(C(=O)OC)CC2=O)C=CC(C)(C)O4` (configuration not stated) [ARTOINDONESIANIN C] the inhibition (Bombyx mori) was 20% and the LC50 [1] was > 500 µg/mL.
